Data: patent US20060009433A1, “Neuroprotective spirostenol pharmaceutical compositions” (priority 2003, published 2006)
“Also recorded” adds a separate entry of the source.

Legend:
NT2 cells [1] = assay: Expression of neurofilament proteins NF70, NF145, NF200 by NT2 cells (immunoblot); assay type: cell-based, human; conditions: 6 days
Experimental: Cells were fixed with newly prepared 3.7% formaldehyde for 15 minutes and blocked by blocking reagent (Zymed Laboratories, San Francisco, Calif., USA). Inuunostaining was performed using rabbit anti-NF200, anti-NF145 and anti-NF70 (all at 1:200), and goat anti-GFRα1, anti-GFRα2 and anti-GFRα3 (all at 1:100); Santa Cruz Biotechnology (Santa Cruz, Calif., USA). All antibodies were used at 200 μg/ml. After overnight incubation at 4° C., the immunoreactivity was detected using horseradish peroxidase-conjugated anti-rabbit or anti-mouse IgG for 1 hour at room temperature and visualized using AEC.
Cells were then washed with phosphate-buffered saline (PBS) and lysed with loading buffer. Proteins were resolved by sodium dodecyl sulfate polyacrylamide gel electrophoresis (SDS-PAGE) on 4-20% gradient acrylamide-bis-acrylamide gel at 125 V for 2 hours and electrotransferred onto nitrocellulose membranes. After blocking with 5% nonfat milk, the membranes were subjected to immunoblot analysis by incubation overnight with rabbit anti-NF200, anti-NF145 and anti-NF70 (all at 1:4000) (Chemicon International, Temecula, Calif., USA) and goat anti-GFRα1, anti-GFRα2 and anti-GFRα3 (all at 1:500) (200 μg/ml; Santa Cruz Biotechnology, Inc., Santa Cruz, Calif., USA), goat anti-rabbit or rabbit anti-goat IgG-horseradish peroxidase being used as the secondary antibody (1:5000) (Zymed Laboratories, San Francisco, Calif., USA). Protein bands were visualized using ECL reagents (Amersham Pharmacia Biotech, Piscataway, N.J., USA). Image-densitometric analyses of the immunoreactive protein bands were performed using OptiQuant-image analysis software (Packard BioScience, Meriden, Conn., USA). Glyceraldehyde-3-phosphate dehydrogenase (GAPPH) served as an internal standard.

human NT2 cells [2] = assay: Trypan blue dye exclusion assay, NT2 cells; assay type: cell-based; conditions: 25 μM steroid, 72 hours
Experimental: Rat PC12 cells were cultured as previously described. Yao et al., Brain Res. 889, 181-190 (2001). Human NT2 precursor (Ntera2/D1 teratocarcinoma) cells were obtained from Stratagene (La Jolla, Calif.) and cultured following the instructions of the supplier. Differentiated human NT2 neurons (NT2N) were obtained after treatment of the NT2 precursor cells with retinoic acid. Andrews, Dev. […] Aβ was dissolved in media and used either in the aggregated (left overnight at 4° C.) or soluble (containing oligomers such as dimers and tetramers) forms examined by electrophoresis as previously described. Yao et al., Brain Res. (2001). […] Id. Cell viability was measured using the trypan blue exclusion method as previously described. Id. In brief, for these studies, cells were treated for 72 hours with steroids in the presence or absence of increasing concentrations of Aβ. At the end of the incubation, the cells were washed three times with PBS and incubated for 15 minutes with 0.1% trypan blue stain solution at room temperature. After washing three times with PBS, 0.1 N NaOH was added to the cells and trypan blue staining was quantified using the Victor quantitative detection spectrophotometer (EGG-Wallac, Gaithersburg, Md.) at 450 nm. Cell protein levels were determined in the same samples by the method of Bradford (Bradford, Anal. Biochem., 72, 248-254 (1976)), where coomassie blue staining is detected at 590 nm.
The results obtained from using MTT assay were further confirmed with the trypan blue dye exclusion assay. […] Levels of viability were measured using the trypan blue assay as described under Materials and Methods. Results are expressed as fold trypan blue stained cells per total cell protein over control untreated cells. Results shown are means±SD (n=6-12).

NT2 cells [3] = assay: LDH and MTT assays, NT2 cell viability
rat PC12 neuronal cells = assay: MTT assay, Aβ1-42-induced cytotoxicity in PC12 cells (Example I)
Aβ17-40 = molecular target: T1, Aβ17-40 (Homo sapiens, UniProt P05067); assay: CPBBA, Aβ17-40; assay type: binding
T1 construct: purchased American Peptide Co. (Sunnyvale, Calif.)
Experimental: At the end of the incubation time, samples were separated by 1.5% agarose (Type I-B) gel electrophoresis and transferred to nitrocellulose membrane (Schleicher & Schuell, Keene, N.H.) in 10×SSC buffer. The membrane was exposed to tritium-sensitive screen and analyzed by phosphoimaging using the Cyclone Storage phosphor system (Packard BioScience, Meridien, Conn.). Image-densitometric analysis was performed using the OptiQuant software (Packard). […] Low molecular weight unincorporated 22i-hydroxycholesterol is separated and eliminated during electrophoresis.

human NT2 cells [4] = assay: MTT assay, glutamate-induced toxicity in NT2 cells; assay type: cell-based; conditions: 5 mM glutamate, three days; 1 to 50 μM compound; data not shown

T1 sequence (P05067 688-711 limits assumed): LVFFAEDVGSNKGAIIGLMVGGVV

With `CC(C)CC[C@@H](O)[C@@H](C)[C@H]1CC[C@H]2[C@@H]3CC=C4C[C@@H](O)CC[C@]4(C)[C@H]3CC[C@]12C` [SP222, 22R-hydroxycholesterol] the NF70 protein level (NT2 cells [1]; 1 μM) was 83 % of the control level, the NF145 expression (NT2 cells [1]; 5 μM) was “increase that was apparent at 5 μM” and the NF200 protein expression (NT2 cells [1]; 5 μM) was 210 % of the control value. The NF145 expression (NT2 cells [1]; 25 μM) was 56 % of control levels, the NF200 protein expression (NT2 cells [1]; 25 μM) was 180 % of the control value and the NF70 protein level (NT2 cells [1]; 50 μM) was 18 % of the control level. For the same molecule, the “rescue from Aβ1-42-induced cell death” value (human NT2 cells [2]) was “rescued”, the “rescue from Aβ25-35-induced cell death” value (human NT2 cells [2]) was “Neither 22R-hydroxycholesterol nor DHEA could rescue” and the “cytotoxicity at high concentrations” value (NT2 cells [3]; LDH and MTT, 25-50 μM, 3-day treatment) was “cytotoxic”. For the same molecule, the “concentration affecting viability of undifferentiated NT2 cells” value (NT2 cells [3]; MTT) was over 10 µM, the “rescue from 25 μM Aβ-induced cytotoxicity” value (rat PC12 neuronal cells; MTT, 25 μM Aβ1-42) was “rescue all the cells; also recorded: full protection” and the “cells rescued in the presence of 50 μM Aβ” value (rat PC12 neuronal cells; MTT, 50 μM Aβ1-42) was 50%. For the same molecule, the “PC12 cell viability, steroid alone” value (rat PC12 neuronal cells; MTT, absence of Aβ) was “did not affect PC12 cell viability”, the IC50 (rat PC12 neuronal cells; Rattus norvegicus, PC-12, read-out: IC50 of protection from Aβ-induced toxicity) was 10 µM and the “protection by pretreatment followed by treatment with Aβ” value (rat PC12 neuronal cells; pretreatment of PC12 cells, data not shown) was “failed to offer any protection”. For the same molecule, the “protection against Aβ oligomer-induced toxicity” value (rat PC12 neuronal cells; soluble Aβ (oligomers), not shown) was “protected”, the “binding to Aβ17-40” value (Aβ17-40; CPBBA) was “binds” and the “22R-hydroxycholesterol-binding site in Aβ” value (Aβ17-40; CPBBA with various Aβ synthetic peptides) was “amino acids 17-40 of Aβ”. The “protection against glutamate-induced decrease in cell viability” value (human NT2 cells [4]) was “failed to protect the cells”.
